According to patent US20210346357A1 (priority 2020, published 2021):

Assays:
Abl2 = Abl2 (Homo sapiens, UniProt P42684); assay: biochemical; settings: read-out: inhibition in the Abl2 assay
Abl1 = Abl1 (Homo sapiens, UniProt P00519); assay: Biochemical ABL1 kinase assay (33P-ATP); settings: read-out: inhibition in the Abl1 assay
Abl1, sequence (P00519 whole entry): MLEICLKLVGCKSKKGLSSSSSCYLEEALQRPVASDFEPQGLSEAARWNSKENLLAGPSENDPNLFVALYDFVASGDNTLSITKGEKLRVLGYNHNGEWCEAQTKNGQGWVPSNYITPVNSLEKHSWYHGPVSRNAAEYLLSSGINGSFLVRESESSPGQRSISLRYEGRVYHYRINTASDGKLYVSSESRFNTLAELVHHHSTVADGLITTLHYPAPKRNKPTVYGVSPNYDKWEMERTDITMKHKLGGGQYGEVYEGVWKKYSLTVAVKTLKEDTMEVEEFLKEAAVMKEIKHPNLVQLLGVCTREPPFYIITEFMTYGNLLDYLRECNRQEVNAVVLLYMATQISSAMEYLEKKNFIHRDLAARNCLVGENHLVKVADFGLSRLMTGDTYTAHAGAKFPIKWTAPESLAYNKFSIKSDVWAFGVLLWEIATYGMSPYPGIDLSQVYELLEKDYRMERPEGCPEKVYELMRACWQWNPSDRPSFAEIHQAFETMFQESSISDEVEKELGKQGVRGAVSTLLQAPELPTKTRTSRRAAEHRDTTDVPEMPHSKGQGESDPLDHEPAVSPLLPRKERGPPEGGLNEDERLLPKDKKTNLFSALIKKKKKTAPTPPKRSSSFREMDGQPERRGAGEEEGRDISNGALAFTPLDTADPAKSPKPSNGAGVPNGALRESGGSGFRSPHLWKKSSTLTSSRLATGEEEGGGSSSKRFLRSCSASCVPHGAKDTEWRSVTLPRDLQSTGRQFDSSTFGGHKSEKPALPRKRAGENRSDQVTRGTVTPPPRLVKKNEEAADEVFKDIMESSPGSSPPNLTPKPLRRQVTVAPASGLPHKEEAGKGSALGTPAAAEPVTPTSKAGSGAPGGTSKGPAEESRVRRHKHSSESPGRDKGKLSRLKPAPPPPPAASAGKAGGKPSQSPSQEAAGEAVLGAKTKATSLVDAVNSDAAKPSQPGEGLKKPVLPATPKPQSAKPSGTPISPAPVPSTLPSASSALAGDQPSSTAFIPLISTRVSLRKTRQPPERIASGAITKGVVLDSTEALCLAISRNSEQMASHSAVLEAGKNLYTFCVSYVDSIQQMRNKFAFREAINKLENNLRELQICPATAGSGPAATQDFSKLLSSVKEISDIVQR

Abl2, sequence (P42684 whole entry): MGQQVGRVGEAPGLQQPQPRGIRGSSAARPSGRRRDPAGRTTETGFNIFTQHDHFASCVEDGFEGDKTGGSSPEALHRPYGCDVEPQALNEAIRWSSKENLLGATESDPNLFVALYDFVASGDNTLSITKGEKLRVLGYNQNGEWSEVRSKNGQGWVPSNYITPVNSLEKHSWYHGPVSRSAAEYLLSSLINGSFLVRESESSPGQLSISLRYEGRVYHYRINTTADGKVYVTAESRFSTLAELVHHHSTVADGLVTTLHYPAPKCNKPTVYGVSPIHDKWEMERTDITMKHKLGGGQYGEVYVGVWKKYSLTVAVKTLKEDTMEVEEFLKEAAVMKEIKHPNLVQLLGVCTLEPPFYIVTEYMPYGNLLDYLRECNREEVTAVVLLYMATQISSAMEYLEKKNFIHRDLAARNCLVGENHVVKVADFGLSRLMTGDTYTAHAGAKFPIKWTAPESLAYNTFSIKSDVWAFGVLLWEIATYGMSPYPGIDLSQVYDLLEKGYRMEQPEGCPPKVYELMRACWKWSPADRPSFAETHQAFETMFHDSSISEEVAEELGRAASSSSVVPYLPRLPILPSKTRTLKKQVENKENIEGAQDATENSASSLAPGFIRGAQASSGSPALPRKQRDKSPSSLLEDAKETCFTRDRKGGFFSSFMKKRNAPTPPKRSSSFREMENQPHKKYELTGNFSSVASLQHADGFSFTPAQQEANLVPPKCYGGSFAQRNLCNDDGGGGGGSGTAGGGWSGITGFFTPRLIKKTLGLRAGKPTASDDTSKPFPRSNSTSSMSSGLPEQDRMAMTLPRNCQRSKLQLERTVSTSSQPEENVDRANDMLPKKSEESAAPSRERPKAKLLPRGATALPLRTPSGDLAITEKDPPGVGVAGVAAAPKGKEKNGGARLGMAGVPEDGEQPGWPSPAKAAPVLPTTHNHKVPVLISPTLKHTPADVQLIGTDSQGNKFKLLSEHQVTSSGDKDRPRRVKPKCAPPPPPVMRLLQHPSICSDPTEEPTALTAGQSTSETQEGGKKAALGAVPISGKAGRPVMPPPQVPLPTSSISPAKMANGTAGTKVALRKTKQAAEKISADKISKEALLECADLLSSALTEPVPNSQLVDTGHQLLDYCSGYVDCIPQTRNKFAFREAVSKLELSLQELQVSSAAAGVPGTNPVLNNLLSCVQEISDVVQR

CCS(=O)(=O)N1CC(CC#N)(n2cc(-c3ncnc4[nH]ccc34)cn2)C1 [baricitinib, reference compound]
inhibition at 10 µM (Abl2): 35% | inhibition at 10 µM (Abl1): 80%
